Assay results published in patent US12059422B2 (MEI Pharma, Inc., priority 2011, dated 2024).

How the values were obtained:
PI3Kδ = biological target: T1, PI3Kδ (Homo sapiens, UniProt O00329); assay: ELISA assay for PI3Kδ: sandwich ELISA, phosphorylation of AKT (Thr308) in Raji cells; assay type: cell-based; conditions: cellular, pAKT (Thr308), Raji cells, anti-Human IgM stimulation; read-out: IC50 p110δ
T1 construct: endogenous in cells; host or cells: Raji (ATCC #CCL-86)
Protocol: Cellular PI3Kδ activity was determined by measuring the phosphorylation of AKT (Thr308) using a sandwich enzyme-linked immunosorbant assay (ELISA). Raji (Burkitt's Lymphoma) cells were obtained from ATCC (ATCC #CCL-86). Phosphate buffer saline (PBS) contained 2.7 M NaCl, 54 mM KCl, 86 mM […] (dibasic, anhydrous), and 28 mM […] (monobasic, anhydrous) at pH 7.2. Wash buffer contained PBS supplemented with 0.05% Tween-20. Blocking buffer contained wash buffer supplemented with 1% BSA. A 10× stimulation mixture contained 5 μg/mL anti-Human IgM antibody (Sigma #12386) diluted in serum-free RPMI medium (CellGro #CV-10-040-CV). Compounds for testing were dissolved and serially diluted in 100% DMSO (total of 10 concentrations), and then diluted in serum-free RPMI to 5×final assay concentration.
Raji cells were subcultured in RPMI medium supplemented with 10% fetal bovine serum, 100 IU/mL penicillin, 100 μg/mL streptomycin, and 1×MEM non-essential amino acids. Sandwich ELISA plates were prepared by coating 96-well assay plates (Pierce #15042) with 100 μL/well capture antibody (Cell Signaling Technology #7142 or 7144) diluted in PBS. Plates were incubated overnight at 4° C., then washed with wash buffer, after which 200 μL/well blocking buffer was added to the plates and incubated at room temperature for at least 2 hrs. Raji cells were resuspended in serum-free RPMI medium and seeded into V-bottom, 2-mL 96-well blocks (Corning #3961) at 10^6 cells/well, then incubated for 2 hrs in a 37° C., 5% CO2 incubator. Compound treatment was performed by adding the 5× compound mixture to the cells and incubating for 2 hrs at 37° C., 5% CO2, after which the 10× stimulation mixture was added to the plates and incubated for 30 min at 37° C., 5% CO2. Cells were pelleted by centrifuging plates at 1500 RPM for 5 min at room temperature. Media was carefully removed and cells were lysed by adding 100 μL/well cell lysis buffer (Cell Signaling Technology #9803) supplemented with protease and phosphatase inhibitors (Thermo Fisher #78443). Plates were incubated on ice for 30 min, then the lysates (80 μL for pAKT^T308, 10 μL for total AKT) were transferred to prepared assay plates and incubated at 4° C. overnight. After washing plates with wash buffer, 100 μL/well detection antibody (Cell Signaling Technology #7142 or 7144) diluted in blocking buffer was added to the plates and incubated for 1 hr at 37° C. Plates were washed and 100 μL/well of HRP-conjugated secondary antibody (Cell Signaling Technology #7142 or 7144) diluted in blocking buffer was added to plates and incubated for 1 hr at room temperature. Plates were washed with wash buffer and 100 μL/well of luminescent substrate was added to plates. After 1 min on a plate shaker at medium speed, luminescence was read on a Wallac Victor2 plate reader. IC50 values were determined by curve fitting using a Collaborative Drug Discovery database (www.collaborativedrug.com).

PI3K delta = biological target: T2, PI3K delta (Homo sapiens, UniProt O00329); assay: Luciferase-based luminescence assay (KinaseGlo), PI3K delta enzymatic activity; assay type: biochemical; conditions: for IC50: inhibition of enzymatic activity, KinaseGlo, 25 μM ATP, read-out: IC50 p110δ; for α/δ ratio: ratio of enzymatic IC50 against PI3Kα over IC50 against PI3Kδ; for β/δ ratio / γ/δ ratio: ratio of enzymatic IC50 values, Table 1
T2 construct: purchased Millipore, Billerica, MA, USA
T2 sequence (O00329 whole entry, species assumed): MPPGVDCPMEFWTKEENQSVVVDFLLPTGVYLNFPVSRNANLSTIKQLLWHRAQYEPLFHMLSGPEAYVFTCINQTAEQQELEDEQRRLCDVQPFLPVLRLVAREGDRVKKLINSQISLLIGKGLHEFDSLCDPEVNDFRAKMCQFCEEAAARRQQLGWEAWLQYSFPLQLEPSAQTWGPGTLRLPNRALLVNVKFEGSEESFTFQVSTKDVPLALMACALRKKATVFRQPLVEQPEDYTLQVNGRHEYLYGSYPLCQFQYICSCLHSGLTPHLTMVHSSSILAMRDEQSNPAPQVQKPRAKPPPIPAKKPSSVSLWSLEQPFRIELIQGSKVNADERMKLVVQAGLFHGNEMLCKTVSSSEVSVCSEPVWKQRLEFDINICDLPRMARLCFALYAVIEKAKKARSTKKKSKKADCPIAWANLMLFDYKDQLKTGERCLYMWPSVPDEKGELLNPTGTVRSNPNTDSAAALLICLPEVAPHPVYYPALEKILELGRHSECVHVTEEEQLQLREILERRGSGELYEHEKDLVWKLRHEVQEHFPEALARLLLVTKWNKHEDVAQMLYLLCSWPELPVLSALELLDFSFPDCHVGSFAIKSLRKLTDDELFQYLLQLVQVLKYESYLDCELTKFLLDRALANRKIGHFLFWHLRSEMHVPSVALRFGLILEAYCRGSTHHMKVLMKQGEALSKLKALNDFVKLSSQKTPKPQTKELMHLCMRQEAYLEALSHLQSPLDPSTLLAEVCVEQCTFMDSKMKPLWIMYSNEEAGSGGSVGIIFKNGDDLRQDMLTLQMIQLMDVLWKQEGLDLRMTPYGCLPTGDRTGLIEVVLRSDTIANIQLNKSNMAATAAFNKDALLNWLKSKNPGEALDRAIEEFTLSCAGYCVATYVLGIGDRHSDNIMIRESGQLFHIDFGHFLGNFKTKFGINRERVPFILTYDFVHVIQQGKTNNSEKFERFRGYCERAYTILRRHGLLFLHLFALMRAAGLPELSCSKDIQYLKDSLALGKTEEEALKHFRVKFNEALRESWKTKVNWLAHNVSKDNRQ
T2 sequence (P27986 whole entry partner, species assumed): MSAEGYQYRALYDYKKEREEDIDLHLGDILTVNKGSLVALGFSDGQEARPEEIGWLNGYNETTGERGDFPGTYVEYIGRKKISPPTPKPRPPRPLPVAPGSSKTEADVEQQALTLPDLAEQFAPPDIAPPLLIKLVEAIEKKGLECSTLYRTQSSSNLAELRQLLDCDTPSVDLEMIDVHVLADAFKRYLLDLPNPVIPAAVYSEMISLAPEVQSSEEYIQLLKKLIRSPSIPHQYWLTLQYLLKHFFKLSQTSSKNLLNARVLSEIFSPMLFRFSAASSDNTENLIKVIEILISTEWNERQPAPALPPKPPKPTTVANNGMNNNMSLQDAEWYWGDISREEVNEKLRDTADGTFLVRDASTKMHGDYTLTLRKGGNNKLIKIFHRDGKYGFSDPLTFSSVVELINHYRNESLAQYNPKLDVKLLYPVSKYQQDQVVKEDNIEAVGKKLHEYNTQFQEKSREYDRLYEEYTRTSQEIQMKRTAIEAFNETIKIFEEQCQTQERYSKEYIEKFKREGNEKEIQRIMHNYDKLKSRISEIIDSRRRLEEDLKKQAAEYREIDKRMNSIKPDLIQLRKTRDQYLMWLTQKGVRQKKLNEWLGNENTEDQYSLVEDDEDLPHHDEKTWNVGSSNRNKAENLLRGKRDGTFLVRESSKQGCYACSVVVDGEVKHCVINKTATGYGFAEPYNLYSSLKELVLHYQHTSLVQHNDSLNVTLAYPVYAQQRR
Protocol: (§1) PI3K catalyzes the conversion of phosphatidylinositol-4,5-bisphosphate (PIP2) and ATP to phosphatidylinositol-3,4,5-trisphosphate (PIP3) and ADP. For all assays, the reaction buffer comprised 50 mM HEPES, pH 7.5, 3 mM MgCl2, 1 mM EGTA, 100 mM NaCl, 0.03% CHAPS and 2 mM DTT. Compounds for testing were dissolved and serially diluted in 100% DMSO (total of 10 concentrations), then diluted 1:25 in reaction buffer.
(§2) PI3K alpha and PI3K delta enzymatic activity was determined by measuring the amount of ATP consumed following the kinase reaction using a luciferase-based luminescence assay (KinaseGlo®, Promega Corp., Madison, WI, USA). PI3K enzyme solutions were prepared by diluting PI3K alpha (Invitrogen Corp., Carlsbad, CA, USA) or PI3K delta (Millipore, Billerica, MA, USA) in reaction buffer, to 4× the final assay concentration (final concentrations of enzymes were 1.65 nM and 6.86 nM for PI3K alpha and PI3K delta, respectively). A substrate solution was prepared by mixing PIP2 and ATP in reaction buffer at 2× the final assay concentration (final concentrations were 50 μM and 25 μM for PIP2 and ATP respectively). 2.5 μL each of the compound and kinase mixtures were added to individual wells of white low volume 384-well assay plates and mixed by shaking. The reactions were started by adding 5 μL of substrate mixture per well and shaking. The assay plates were covered and reactions were allowed to proceed for 1 hour (PI3K alpha) or 2 hours (PI3K delta), after which 10 μL of Kinase Glo® reagent was added. The plates were briefly centrifuged and incubated for 10 minutes, after which luminescence was measured using a FlexStation plate reader (Molecular Devices, Sunnyvale, CA, USA). IC50 values were determined by curve fitting using Graphpad Prism software (Graphpad Software, La Jolla, CA, USA).

PI3K beta = biological target: T3, PI3K beta (Homo sapiens, UniProt P42338); assay: Luciferase-based luminescence assay (ADP Glo), PI3K beta enzymatic activity; assay type: biochemical; conditions: for IC50: inhibition of enzymatic activity, ADP Glo, 25 μM ATP, read-out: IC50 p110β; for α/β ratio: ratio of enzymatic IC50 values, Table 1
T3 construct: purchased Millipore, Billerica, MA, USA
T3 sequence (P42338 whole entry, species assumed): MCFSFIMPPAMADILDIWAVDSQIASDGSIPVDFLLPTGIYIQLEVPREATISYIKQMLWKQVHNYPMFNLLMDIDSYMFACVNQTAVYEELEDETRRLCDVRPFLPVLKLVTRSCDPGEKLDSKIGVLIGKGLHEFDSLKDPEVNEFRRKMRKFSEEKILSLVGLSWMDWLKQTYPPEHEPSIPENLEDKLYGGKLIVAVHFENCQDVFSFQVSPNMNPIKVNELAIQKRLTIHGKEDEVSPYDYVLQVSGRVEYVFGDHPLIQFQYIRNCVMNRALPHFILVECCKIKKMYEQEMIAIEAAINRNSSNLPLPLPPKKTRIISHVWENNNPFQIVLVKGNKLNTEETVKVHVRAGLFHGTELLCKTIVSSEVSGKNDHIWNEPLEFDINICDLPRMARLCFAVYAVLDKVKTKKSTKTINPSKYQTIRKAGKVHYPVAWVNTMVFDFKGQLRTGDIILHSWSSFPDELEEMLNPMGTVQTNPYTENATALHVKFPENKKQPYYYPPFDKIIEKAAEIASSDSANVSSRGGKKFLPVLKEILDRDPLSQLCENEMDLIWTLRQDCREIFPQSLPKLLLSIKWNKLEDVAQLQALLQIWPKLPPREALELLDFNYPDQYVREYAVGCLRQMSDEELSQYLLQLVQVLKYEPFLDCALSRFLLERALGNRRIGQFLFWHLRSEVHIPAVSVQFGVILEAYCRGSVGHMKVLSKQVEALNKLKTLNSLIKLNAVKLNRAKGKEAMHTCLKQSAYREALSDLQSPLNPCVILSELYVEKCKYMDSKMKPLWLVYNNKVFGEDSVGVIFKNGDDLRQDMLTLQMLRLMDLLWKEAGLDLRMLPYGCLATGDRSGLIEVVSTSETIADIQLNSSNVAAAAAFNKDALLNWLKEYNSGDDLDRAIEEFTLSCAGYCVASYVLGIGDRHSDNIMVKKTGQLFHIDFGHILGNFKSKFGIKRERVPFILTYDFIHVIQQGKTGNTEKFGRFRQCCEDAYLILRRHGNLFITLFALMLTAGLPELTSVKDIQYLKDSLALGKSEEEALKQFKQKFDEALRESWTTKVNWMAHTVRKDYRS
T3 sequence (P27986 whole entry partner, species assumed): as the sequence (P27986 whole entry partner, species assumed) above
Protocol: as §1
(§3) PI3K beta and gamma enzymatic activity was determined by measuring the amount of ADP produced following the kinase reaction using a luciferase-based luminescence assay (ADP Glo®, Promega Corp., Madison, WI, USA). PI3K enzyme solutions were prepared by diluting PI3K beta (Millipore, Billerica, MA, USA) or PI3K gamma (Invitrogen Corp., Carlsbad, CA, USA) in reaction buffer, to 4× the final assay concentration (final concentrations of enzymes were 4.8 nM and 7.6 nM for PI3K beta and PI3K gamma respectively). A substrate solution was prepared by mixing PIP2 and ATP in reaction buffer at 2× the final assay concentration (final concentrations were 50 μM and 25 μM for PIP2 and ATP respectively). 2.5 μL each of the compound and kinase mixtures were added to individual wells of white low volume 384-well assay plates and mixed by shaking. The reactions were started by adding 5 μL of substrate mixture per well and shaking. The assay plates were covered and reactions were allowed to proceed for 1 hour. Then, 5 μL of reaction mix was transferred to another white low volume 384-well plate, and 5 μL of ADP-Glo™ reagent was added. The plates were briefly centrifuged and incubated for 40 minutes, after which 10 μL of kinase detection buffer was added. The plates then were centrifuged briefly, shaken slowly and equilibrated at room temperature for 30 minutes, after which luminescence was measured using a FlexStation plate reader (Molecular Devices, Sunnyvale, CA, USA). IC50 values were determined by curve fitting using Graphpad Prism software (Graphpad Software, La Jolla, CA, USA).

PI3K gamma = biological target: T4, PI3K gamma (Homo sapiens, UniProt P48736); assay: Luciferase-based luminescence assay (ADP Glo), PI3K gamma enzymatic activity; assay type: biochemical; conditions: inhibition of enzymatic activity, 25 μM ATP, read-out: IC50 p110γ
T4 construct: purchased Invitrogen Corp., Carlsbad, CA, USA
Protocol: as §1, §3

mTOR = mTOR (Homo sapiens, UniProt P42345); assay: mTOR inhibition (Table 1); assay type: biochemical; conditions: Table 1, no method described
PI3K alpha = biological target: T5, PI3K alpha (Homo sapiens, UniProt P42336); assay: Luciferase-based luminescence assay (KinaseGlo), PI3K alpha enzymatic activity; assay type: biochemical; conditions: inhibition of enzymatic activity, 25 μM ATP, read-out: IC50 p110α
T5 construct: purchased Invitrogen Corp., Carlsbad, CA, USA
T5 sequence (P42336 whole entry, species assumed): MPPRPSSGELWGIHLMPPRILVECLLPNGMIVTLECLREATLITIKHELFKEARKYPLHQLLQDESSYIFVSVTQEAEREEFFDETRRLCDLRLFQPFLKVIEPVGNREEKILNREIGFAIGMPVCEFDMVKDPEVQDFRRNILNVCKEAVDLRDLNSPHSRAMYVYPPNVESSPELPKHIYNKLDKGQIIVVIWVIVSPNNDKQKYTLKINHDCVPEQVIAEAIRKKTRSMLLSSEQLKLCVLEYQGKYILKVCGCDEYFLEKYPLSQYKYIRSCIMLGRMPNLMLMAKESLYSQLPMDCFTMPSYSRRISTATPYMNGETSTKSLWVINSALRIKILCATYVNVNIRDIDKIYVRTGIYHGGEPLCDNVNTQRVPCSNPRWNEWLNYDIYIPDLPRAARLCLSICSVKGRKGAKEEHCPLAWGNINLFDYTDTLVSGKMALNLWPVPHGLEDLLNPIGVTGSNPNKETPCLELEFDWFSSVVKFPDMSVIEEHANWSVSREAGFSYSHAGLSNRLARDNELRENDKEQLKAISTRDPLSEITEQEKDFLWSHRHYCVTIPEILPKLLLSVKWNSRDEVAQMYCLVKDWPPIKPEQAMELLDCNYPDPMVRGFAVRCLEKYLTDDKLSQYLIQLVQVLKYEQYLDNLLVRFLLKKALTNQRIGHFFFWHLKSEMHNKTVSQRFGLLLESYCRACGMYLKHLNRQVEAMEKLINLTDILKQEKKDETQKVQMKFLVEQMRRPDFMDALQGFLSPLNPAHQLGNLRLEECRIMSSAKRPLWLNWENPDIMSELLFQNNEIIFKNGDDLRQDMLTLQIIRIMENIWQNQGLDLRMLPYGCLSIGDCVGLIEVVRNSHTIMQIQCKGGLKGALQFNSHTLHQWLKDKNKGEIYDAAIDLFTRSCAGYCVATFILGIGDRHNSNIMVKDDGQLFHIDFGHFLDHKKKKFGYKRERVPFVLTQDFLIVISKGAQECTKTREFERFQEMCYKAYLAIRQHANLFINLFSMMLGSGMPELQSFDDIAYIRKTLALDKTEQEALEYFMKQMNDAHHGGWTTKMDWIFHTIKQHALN
T5 sequence (P27986 whole entry partner, species assumed): as the sequence (P27986 whole entry partner, species assumed) above
Protocol: as §1, §2

T1 sequence (O00329 whole entry): as the sequence (O00329 whole entry, species assumed) above
T1 sequence (P27986 whole entry partner): as the sequence (P27986 whole entry partner, species assumed) above

Structure (SMILES)	IC50 (PI3Kδ) [nM]	IC50 (PI3K delta) [nM]	α/δ ratio (PI3K delta)	β/δ ratio (PI3K delta)	γ/δ ratio (PI3K delta)	IC50 (PI3K beta) [nM]	α/β ratio (PI3K beta)	IC50 (PI3K gamma) [nM]	IC50 (mTOR) [nM]	IC50 (PI3K alpha) [nM]
CC(C)(Cc1ccc(Cl)cc1)Nc1nc(N2CCOCC2)nc(-n2c(C(F)F)nc3ccccc32)n1 [Compound A23, N-(1-(4-chlorophenyl)-2-methylpropan-2-yl)-4-(2-(difluoromethyl)-1H-benzo[d]imidazol-1-yl)-6-morpholino-1,3,5-triazin-2-amine]	≤ 100	≤ 100	B’	D’	C’	200 to 500	D’	200 to 500	> 500	> 500
CC(C)(Cc1ccc(Br)cc1)Nc1nc(N2CCOCC2)nc(-n2c(C(F)F)nc3ccccc32)n1 [Compound A24, N-(1-(4-bromophenyl)-2-methylpropan-2-yl)-4-(2-(difluoromethyl)-1H-benzo[d]imidazol-1-yl)-6-morpholino-1,3,5-triazin-2-amine]	≤ 100	100 to 200	D’	C’	D’	> 500	D’	200 to 500	> 500	> 500
COc1ccc(CC(C)(C)Nc2nc(N3CCOCC3)nc(-n3c(C(F)F)nc4ccccc43)n2)cc1 [Compound A25, 4-(2-(difluoromethyl)-1H-benzo[d]imidazol-1-yl)-N-(1-(4-methoxyphenyl)-2-methylpropan-2-yl)-6-morpholino-1,3,5-triazin-2-amine]	≤ 100	200 to 500	D’	A’	D’	> 500	D’	> 500	> 500	> 500
CC(C)(Cc1ccccc1-c1ccccc1)Nc1nc(N2CCOCC2)nc(-n2c(C(F)F)nc3ccccc32)n1 [Compound A47, 4-(2-(difluoromethyl)-1H-benzo[d]imidazol-1-yl)-N-(1-(biphenyl-2-yl)-2-methylpropan-2-yl)-6-morpholino-1,3,5-triazin-2-amine]	–	≤ 100	A’	B’	A’	100 to 200	D’	> 500	> 500	200 to 500
